Article PMC4828312 (Journal of neurochemistry, 2016)

Tests used:
CXCR4 = conditions: cited from earlier work
primary cortical neurons = experiment: Cell viability, Hoechst/PI co-staining; format: cell-based, rat; conditions: gp120s in combination with Helix-A nano or Helix-A peptide, 24 hr; three separate experiments, n=200 neurons each group; Fig. 6A
cortical neurons [1] = experiment: LDH release; format: cell-based, rat; conditions: gp120s in combination with Helix-A nano or Helix-A peptide, 24 hr; three separate experiments; Fig. 6B
tubulin dimer = experiment: Surface plasmon resonance; format: binding, Porcine; conditions: peptides injected at 10 nM – 500 µM; three independent experiments; Fig. 2D
cortical neurons [2] = experiment: Length of neuronal processes; format: cell-based, rat; conditions: gp120s (all 5 nM) in combination with Helix-A peptide or Helix-A nano (5 µM each), 24 hr; three independent experiments
[3] = molecular target: assembled MTs (containing ~25% of TUBB3); experiment: Surface plasmon resonance; format: binding, Porcine; conditions: peptides injected at 10 nM – 500 µM; three independent experiments; Fig. 2D
recombinant TUBB3 = recombinant TUBB3 (Homo sapiens, UniProt Q13509); experiment: Surface plasmon resonance; format: binding; conditions: peptides injected at 10 nM – 500 µM; three independent experiments; Fig. 2D
Sequence of recombinant TUBB3 (Q13509 whole entry): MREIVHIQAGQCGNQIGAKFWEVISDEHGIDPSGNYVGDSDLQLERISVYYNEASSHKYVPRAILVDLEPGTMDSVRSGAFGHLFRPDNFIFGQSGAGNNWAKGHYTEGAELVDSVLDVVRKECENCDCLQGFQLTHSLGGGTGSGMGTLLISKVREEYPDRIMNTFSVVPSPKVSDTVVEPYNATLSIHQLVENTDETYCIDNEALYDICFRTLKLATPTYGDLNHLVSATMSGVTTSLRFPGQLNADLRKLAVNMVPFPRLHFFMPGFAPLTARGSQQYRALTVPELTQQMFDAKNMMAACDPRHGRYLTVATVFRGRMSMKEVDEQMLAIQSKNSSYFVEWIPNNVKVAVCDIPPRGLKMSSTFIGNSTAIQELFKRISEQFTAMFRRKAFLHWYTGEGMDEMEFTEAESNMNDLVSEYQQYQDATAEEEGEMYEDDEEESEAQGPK

c1cc(CN2CCCNCCNCCCNCC2)ccc1CN1CCCNCCNCCCNCC1 [AMD3100]
Internalization of gp120 (CXCR4; ref Bachis et al. 2003): bloked | gp120 toxicity (CXCR4; ref Melli et al. 2006, Meucci et al. 1998): prevents gp120 toxicity

NDMVEQMHEDIISLWDQSLK [Helix-A]
Prevention of gp120-induced neuronal loss, Hoechst/PI staining (primary cortical neurons): but not Helix-A peptide abolished all neurotoxic effects of gp120 | Prevention of gp120-induced neuronal loss, LDH release (cortical neurons [1]): but not Helix-A peptide abolished all neurotoxic effects of gp120 | Binding of peptide to tubulin dimer by SPR (tubulin dimer): in the higher micromole range | Prevention of gp120-mediated neurite pruning (cortical neurons [2]): but not Helix-A peptide prevented the gp120-mediated neurite pruning | Binding of peptide to assembled MTs by SPR [3]: in the higher micromole range

RAKWNNTLKQIASK [Helix-B]
Binding of peptide to TUBB3 by SPR (recombinant TUBB3): but not Helix-B peptide binds to TUBB3
